Laboratory results from ChEMBL document CHEMBL4270519, “Synthesis and biological evaluation of β2-adrenoceptor agonists bearing the 2-amino-2-phenylethanol scaffold” (Eur J Med Chem, 2018).

Legend:
[1] = biological target: Beta-1 adrenergic receptor (Homo sapiens, UniProt P08588); assay: Agonist activity at human beta1 adrenergic receptor expressed in HEK293 cells assessed as increase in cAMP accumulation after 60 mins by HTRF assay; assay type: functional, cell-based
[2] = biological target: T1, Beta-2 adrenergic receptor (Homo sapiens, UniProt P07550); assay: Agonist activity at human beta2 adrenergic receptor expressed in HEK293 cells assessed as increase in cAMP accumulation after 60 mins by HTRF assay; assay type: functional, cell-based
Target sequence in this assay (P07550 whole entry): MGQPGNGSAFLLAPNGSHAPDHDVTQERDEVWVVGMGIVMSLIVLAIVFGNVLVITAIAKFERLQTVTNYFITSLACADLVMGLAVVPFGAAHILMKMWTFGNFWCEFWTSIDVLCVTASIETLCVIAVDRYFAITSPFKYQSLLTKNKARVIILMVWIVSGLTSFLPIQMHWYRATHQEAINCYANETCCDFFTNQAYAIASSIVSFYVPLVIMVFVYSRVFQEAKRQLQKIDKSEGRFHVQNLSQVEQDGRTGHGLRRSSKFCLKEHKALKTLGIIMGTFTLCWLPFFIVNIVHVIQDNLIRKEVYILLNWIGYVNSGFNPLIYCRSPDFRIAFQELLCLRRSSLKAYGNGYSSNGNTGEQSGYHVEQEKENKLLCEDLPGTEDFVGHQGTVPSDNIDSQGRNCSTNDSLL

Homo sapiens = organism: Homo sapiens; assay: Selectivity ratio of pEC50 for human beta2 adrenergic receptor expressed in HEK293 cells to pEC50 for human beta1 adrenergic receptor expressed in HEK293 cells; assay type: cell-based
[3] = biological target: T1, Beta-2 adrenergic receptor; assay: Intrinsic activity at human beta2 adrenergic receptor in HEK293 cells assessed as increase in cAMP accumulation after 60 mins by HTRF assay relative to isoprenaline; assay type: functional, cell-based
Target sequence in this assay (P07550 whole entry, looked up): as the sequence (P07550 whole entry) above

[4] = Intrinsic clearance in human liver microsomes at 10 uM after 10 mins in presence of NADPH by LC/MS/MS analysis; assay type: ADME, microsome; conditions: read-out: CLH
[5] = Half life in human liver microsomes at 10 uM by LC/MS/MS analysis; assay type: ADME, microsome
Smooth muscle of trachea [6] = assay: Reduction in histamine-induced muscle contractions in Dunkin-Hartley guinea pig tracheal smooth muscle ring by measuring muscle tone relative to control; assay type: functional; conditions: Cavia porcellus
Smooth muscle of trachea [7] = assay: Intrinsic activity at Dunkin-Hartley guinea pig tracheal smooth muscle ring assessed as reduction in histamine-induced muscle contractions by measuring muscle tone relative to isoprenaline; assay type: functional, Cavia porcellus
[8] = biological target: Beta-3 adrenergic receptor (Homo sapiens, UniProt P13945); assay: Agonist activity at human beta3 adrenergic receptor expressed in HEK293 cells assessed as increase in cAMP accumulation after 60 mins by HTRF assay; assay type: functional, cell-based
Smooth muscle of trachea [9] = assay: Reduction in histamine-induced muscle contractions in Dunkin-Hartley guinea pig tracheal smooth muscle ring by measuring muscle tone; assay type: functional, Cavia porcellus
[10] = Apparent permeability from basolateral to apical side in human Caco2 cells at 2 uM after 2 hrs by LC/MS/MS analysis; assay type: ADME, cell-based; conditions: Caco-2
[11] = Apparent permeability from apical to basolateral side in human Caco2 cells at 2 uM after 2 hrs by LC/MS/MS analysis; assay type: ADME, cell-based; conditions: Caco-2

Beta-3 adrenergic receptor, sequence (P13945 whole entry): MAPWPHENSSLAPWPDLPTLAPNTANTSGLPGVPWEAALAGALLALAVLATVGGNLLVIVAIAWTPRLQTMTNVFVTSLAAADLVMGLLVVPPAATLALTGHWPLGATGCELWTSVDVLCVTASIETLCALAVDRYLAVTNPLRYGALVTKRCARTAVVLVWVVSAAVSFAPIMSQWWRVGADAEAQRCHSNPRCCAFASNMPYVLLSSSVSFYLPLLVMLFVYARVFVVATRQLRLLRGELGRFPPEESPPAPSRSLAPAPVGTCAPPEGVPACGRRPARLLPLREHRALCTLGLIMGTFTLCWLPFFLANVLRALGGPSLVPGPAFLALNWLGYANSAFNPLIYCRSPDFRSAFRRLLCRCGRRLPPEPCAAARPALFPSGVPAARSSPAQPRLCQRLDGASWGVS
Beta-1 adrenergic receptor, sequence (P08588 whole entry): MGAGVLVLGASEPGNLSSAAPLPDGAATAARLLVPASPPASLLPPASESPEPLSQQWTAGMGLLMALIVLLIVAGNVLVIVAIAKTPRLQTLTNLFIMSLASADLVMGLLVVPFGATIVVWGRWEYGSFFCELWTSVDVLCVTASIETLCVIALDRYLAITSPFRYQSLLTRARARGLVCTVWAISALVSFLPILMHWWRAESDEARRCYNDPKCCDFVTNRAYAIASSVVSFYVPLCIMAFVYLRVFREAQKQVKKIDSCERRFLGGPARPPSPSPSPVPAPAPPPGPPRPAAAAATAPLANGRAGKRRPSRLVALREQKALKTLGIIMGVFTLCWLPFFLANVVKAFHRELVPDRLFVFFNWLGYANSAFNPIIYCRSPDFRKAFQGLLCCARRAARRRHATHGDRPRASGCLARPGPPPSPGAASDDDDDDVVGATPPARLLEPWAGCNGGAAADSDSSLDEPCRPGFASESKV

EC50 [1] [nM]	EC50 ([2]; read-out: pEC50 (converted)) [nM]	SMILES	Ratio (Homo sapiens)	also measured
3160	2.51	O=c1ccc2c(C(CO)NCCc3cccc(Cl)c3)ccc(O)c2[nH]1 (stereo not drawn)	3.05	–
–	631	CC(C)CC(=O)Nc1ccc(CCNC(CO)c2ccc(O)c3[nH]c(=O)ccc23)cc1 (stereo not drawn)	–	–
> 10000	50.1	CC(C)(Cc1ccccc1)NC(CO)c1ccc(O)c2[nH]c(=O)ccc12 (stereo not drawn)	> 2.28	–
–	50.1	CC(C)C(=O)Nc1ccc(CCNC(CO)c2ccc(O)c3[nH]c(=O)ccc23)cc1 (stereo not drawn)	–	–
631	2	COc1cccc(CCNC(CO)c2ccc(O)c3[nH]c(=O)ccc23)c1 (stereo not drawn)	2.62	Intrinsic activity [3]: 52.5%
–	316	O=c1ccc2c(C(CO)NCCc3c[nH]c4ccccc34)ccc(O)c2[nH]1 (stereo not drawn)	–	–
1580	39.8	O=c1ccc2c(C(CO)NCCc3ccc(Cl)cc3)ccc(O)c2[nH]1 (stereo not drawn)	1.6	–
–	–	CC(C)NCC(O)c1ccc(O)c(O)c1 (stereo not drawn) [ISOPROTERENOL]	–	CLint scaled at 10 µM [4]: 112 mL/min/kg; half-life at 10 µM [5]: 0.205 h; Emax (Smooth muscle of trachea [6]): 254%
–	251	O=c1ccc2c(C(CO)NCCCCOCCCCc3ccccc3)ccc(O)c2[nH]1 (stereo not drawn)	–	–
> 10000	12.6	O=c1ccc2c(C(CO)NCCCCc3ccccc3)ccc(O)c2[nH]1 (stereo not drawn)	> 2.86	–
> 10000	10	O=c1ccc2c(C(CO)NCCc3ccccc3O)ccc(O)c2[nH]1 (stereo not drawn)	> 3.03	Intrinsic activity [3]: 54.2%
–	316	CCc1cc2c(cc1CC)CC(NC(CO)c1ccc(O)c3[nH]c(=O)ccc13)C2 (stereo not drawn)	–	–
> 10000	2	O=c1ccc2c(C(CO)NCCc3ccccc3Cl)ccc(O)c2[nH]1 (stereo not drawn)	> 3.66	–
–	631	O=c1ccc2c(C(CO)NCC(c3ccccc3)c3ccccc3)ccc(O)c2[nH]1 (stereo not drawn)	–	–
> 10000	5.01	COc1ccccc1CCNC(CO)c1ccc(O)c2[nH]c(=O)ccc12 (stereo not drawn)	> 3.3	Intrinsic activity (Smooth muscle of trachea [7]): 44%; EC50 [8]: > 10000 nM; Intrinsic activity [3]: 48.6%; Emax (Smooth muscle of trachea [6]): 111%; pD2 (Smooth muscle of trachea [9]): 6.03
–	3.98	O=C(Cc1ccccc1)Nc1ccc(CCNC(CO)c2ccc(O)c3[nH]c(=O)ccc23)cc1 (stereo not drawn)	–	–
–	50.1	O=C(Nc1ccc(CCNC(CO)c2ccc(O)c3[nH]c(=O)ccc23)cc1)c1ccccc1 (stereo not drawn)	–	–
–	79.4	Nc1ccc(CCNC(CO)c2ccc(O)c3[nH]c(=O)ccc23)cc1 (stereo not drawn)	–	–
–	–	O=c1ccc2c([C@H](CO)NCCc3ccc(O)cc3)ccc(O)c2[nH]1	–	EC50 ([2]; read-out: EC50): 328 nM
–	316	CCCCC(=O)Nc1ccc(CCNC(CO)c2ccc(O)c3[nH]c(=O)ccc23)cc1 (stereo not drawn)	–	–
> 10000	20	COc1ccc(CCNC(CO)c2ccc(O)c3[nH]c(=O)ccc23)cc1 (stereo not drawn)	> 2.71	–
832	1.58	O=c1ccc2c(C(CO)NCCc3ccccc3)ccc(O)c2[nH]1 (stereo not drawn)	2.72	Intrinsic activity (Smooth muscle of trachea [7]): 100%; EC50 [8]: > 10000 nM; Intrinsic activity [3]: 57.4%; Emax (Smooth muscle of trachea [6]): 255%; pD2 (Smooth muscle of trachea [9]): 7.81
–	794	O=c1ccc2c(C(CO)NCCc3cccc(O)c3)ccc(O)c2[nH]1 (stereo not drawn)	–	–
> 10000	5.01	O=c1ccc2c(C(CO)NCCCCCCOCCCCc3ccccc3)ccc(O)c2[nH]1 (stereo not drawn)	> 3.31	–
–	–	O=c1ccc2c([C@@H](CO)NCCc3ccc(O)cc3)ccc(O)c2[nH]1	–	CLint scaled at 10 µM [4]: 11.5 mL/min/kg; Papp B→A at 2 h, 2 µM [10]: 0.74 ×10⁻⁶ cm/s; EC50 ([2]; read-out: EC50): 1.26 nM; half-life at 10 µM [5]: 1.81 h; Papp A→B at 2 h, 2 µM [11]: 0.43 ×10⁻⁶ cm/s
> 10000	3.16	O=c1ccc2c(C(CO)NCCc3ccc(O)cc3)ccc(O)c2[nH]1 (stereo not drawn)	> 3.5	Intrinsic activity (Smooth muscle of trachea [7]): 98%; EC50 [8]: > 10000 nM; Intrinsic activity [3]: 46.3%; Emax (Smooth muscle of trachea [6]): 250%; pD2 (Smooth muscle of trachea [9]): 7.98
832	10	O=c1ccc2c(C(CO)NCCCc3ccccc3)ccc(O)c2[nH]1 (stereo not drawn)	1.89	EC50 [8]: > 10000 nM; Intrinsic activity [3]: 55.8%
